Data set [1] addresses T1, hERG (Kv11.1, KCNH2) (Homo sapiens, UniProt Q12809). Briefly: in vitro.
Description: MMV: Malaria Box compounds were tested for inhibition of the human ether a go-go related gene (hERG), Kv11.1 channel, using IonWorks 384-well patch clamp electrophysiology at 1.1uM (3 independent assay plates up to 12 cells per concentration).
The target in data set [2] is T1, hERG (Kv11.1, KCNH2). Briefly: in vitro. The source holds these as a separate data set.
Description: MMV: Malaria Box compounds were tested for inhibition of the human ether a go-go related gene (hERG), Kv11.1 channel, using IonWorks 384-well patch clamp electrophysiology at 11.1uM (3 independent assay plates up to 12 cells per concentration).

Calls of active or inactive are those of the source. The rule behind the calls is not given here.

One may read the inhibition as the relative decrease from the control value, in per cent.

T1 sequence (Q12809 whole entry): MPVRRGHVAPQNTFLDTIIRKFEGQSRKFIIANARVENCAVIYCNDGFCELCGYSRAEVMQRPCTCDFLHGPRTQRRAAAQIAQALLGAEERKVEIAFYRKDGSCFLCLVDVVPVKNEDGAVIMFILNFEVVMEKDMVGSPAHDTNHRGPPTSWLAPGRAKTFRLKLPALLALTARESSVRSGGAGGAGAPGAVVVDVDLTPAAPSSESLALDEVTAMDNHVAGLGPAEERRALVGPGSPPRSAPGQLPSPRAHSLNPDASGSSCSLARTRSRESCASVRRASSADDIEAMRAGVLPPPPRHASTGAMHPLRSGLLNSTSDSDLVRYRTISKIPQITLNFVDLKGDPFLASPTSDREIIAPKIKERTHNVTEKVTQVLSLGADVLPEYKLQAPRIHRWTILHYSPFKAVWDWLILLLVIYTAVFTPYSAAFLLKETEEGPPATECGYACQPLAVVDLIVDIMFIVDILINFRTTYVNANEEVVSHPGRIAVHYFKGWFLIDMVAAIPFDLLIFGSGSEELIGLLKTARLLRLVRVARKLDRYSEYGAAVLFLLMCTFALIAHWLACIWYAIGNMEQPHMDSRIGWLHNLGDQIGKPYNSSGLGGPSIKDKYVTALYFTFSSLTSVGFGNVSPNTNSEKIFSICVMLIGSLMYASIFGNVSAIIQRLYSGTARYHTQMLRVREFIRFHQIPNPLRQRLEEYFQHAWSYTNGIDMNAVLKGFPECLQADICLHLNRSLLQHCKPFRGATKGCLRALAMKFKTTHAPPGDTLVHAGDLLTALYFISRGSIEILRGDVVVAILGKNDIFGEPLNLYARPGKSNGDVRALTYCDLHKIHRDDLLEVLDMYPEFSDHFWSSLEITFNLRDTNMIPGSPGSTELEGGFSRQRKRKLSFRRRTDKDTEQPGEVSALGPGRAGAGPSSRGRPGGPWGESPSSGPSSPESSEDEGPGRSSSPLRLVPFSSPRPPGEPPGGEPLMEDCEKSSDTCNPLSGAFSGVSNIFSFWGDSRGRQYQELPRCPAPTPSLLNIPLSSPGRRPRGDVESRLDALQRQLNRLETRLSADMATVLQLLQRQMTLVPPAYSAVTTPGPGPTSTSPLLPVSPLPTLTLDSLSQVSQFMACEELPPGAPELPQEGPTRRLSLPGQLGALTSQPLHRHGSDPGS

As to `COc1ccc(Nc2nc(N/N=C/c3ccc(O)cc3)nc(Nc3ccc([N+](=O)[O-])cc3)n2)cc1`, the inhibition at 1.1 µM against hERG (Kv11.1, KCNH2) [1] was found to be 17%. The inhibition at 11.1 µM on hERG (Kv11.1, KCNH2) [2] is 70% (active).

With `COc1ccc(C2c3ccc4ccccc4c3Oc3ncn(CCCN(C)C)c(=N)c32)cc1` (stereo not drawn), the inhibition at 1.1 µM on hERG (Kv11.1, KCNH2) [1] amounted to 32%. For the same molecule, the inhibition at 11.1 µM on hERG (Kv11.1, KCNH2) [2] is 86% (active).

Regarding `CSC1=NC(=Nc2c(C)cccc2C)C2(CCC(C(C)(C)C)CC2)N1c1ccc(Cl)cc1` (stereo not drawn), on hERG (Kv11.1, KCNH2) [1], the inhibition at 1.1 µM is -5%. Also, the inhibition at 11.1 µM on hERG (Kv11.1, KCNH2) [2] was 5% (inactive).

`COC(=O)c1ccc(Cl)c2c1C1C=CCC1C(c1cccc3ccccc13)N2` (stereo not drawn): on hERG (Kv11.1, KCNH2) [1], the inhibition at 1.1 µM turned out to be 10%. Besides, the inhibition at 11.1 µM at hERG (Kv11.1, KCNH2) [2] is 110% (active).

On to `COc1ccc(C2c3ccc4ccccc4c3Oc3ncn(CCCn4ccnc4)c(=N)c32)cc1OC` (stereo not drawn), for which, on hERG (Kv11.1, KCNH2) [1], the inhibition at 1.1 µM came out at 23%. In addition, at hERG (Kv11.1, KCNH2) [2], the inhibition at 11.1 µM was found to be 25%.

Consider `CN(N=O)C1=C(NC2CCCCC2)C(=O)c2ccccc2C1=O`, for which, on hERG (Kv11.1, KCNH2) [1], the inhibition at 1.1 µM was -2%. Besides, the inhibition at 11.1 µM at hERG (Kv11.1, KCNH2) [2] is 70% (active).

As for `CCOC(=O)C1=C(C)N=c2sc(=Cc3ccccc3O)c(=O)n2C1c1ccc(OC)c2ccccc12` (stereo not drawn), the inhibition at 1.1 µM against hERG (Kv11.1, KCNH2) [1] came out at 13%. Further, on hERG (Kv11.1, KCNH2) [2], the inhibition at 11.1 µM is 2% (inactive).

Take `CCOc1ccc(N2C(N)=NC(N)=NC2(C)C)cc1`: at hERG (Kv11.1, KCNH2) [1], the inhibition at 1.1 µM is 12%. In addition, the inhibition at 11.1 µM at hERG (Kv11.1, KCNH2) [2] is 6% (inactive).

With `CCCCCCc1cc2cc(-c3csc(C=Cc4ccccc4)n3)c(=O)oc2cc1O`, the inhibition at 1.1 µM against hERG (Kv11.1, KCNH2) [1] came out at 81%. Also, the inhibition at 11.1 µM against hERG (Kv11.1, KCNH2) [2] came to 93%.

With `O=c1nc(C=Cc2ccc(Br)cc2)oc2ccccc12`, on hERG (Kv11.1, KCNH2) [1], the inhibition at 1.1 µM came to 8%. The inhibition at 11.1 µM at hERG (Kv11.1, KCNH2) [2] is 16% (inactive).

For `O=[N+]([O-])c1ccc(C=NNc2nc3ccccc3[nH]2)cc1`, at hERG (Kv11.1, KCNH2) [1], the inhibition at 1.1 µM amounted to 15%. For the same molecule, the inhibition at 11.1 µM against hERG (Kv11.1, KCNH2) [2] was determined as 44%.

In the case of `CCOC(=O)C1=C(c2ccccc2)N=c2sc(=Cc3cc(C)n(-c4ccc(F)cc4)c3C)c(=O)n2C1c1cccc(OC)c1OC` (stereo not drawn), on hERG (Kv11.1, KCNH2) [1], the inhibition at 1.1 µM worked out at 3%. Besides, on hERG (Kv11.1, KCNH2) [2], the inhibition at 11.1 µM was 11% (inactive).

For `COc1cccc(C=Cc2nc(=O)c3ccccc3o2)c1OC`, the inhibition at 1.1 µM at hERG (Kv11.1, KCNH2) [1] is -3%. For the same molecule, the inhibition at 11.1 µM on hERG (Kv11.1, KCNH2) [2] was -4% (inactive).

As to `COc1ccc(CCn2c(=N)c(C(=O)NCc3cccnc3)cc3c(=O)n4cccc(C)c4nc32)cc1`, the inhibition at 1.1 µM on hERG (Kv11.1, KCNH2) [1] amounted to 19%. Also, the inhibition at 11.1 µM on hERG (Kv11.1, KCNH2) [2] was 14% (inactive).

Regarding `COc1ccc(C=C2SC(=N)N(c3ccccc3OC)C2=O)cc1`, the inhibition at 1.1 µM on hERG (Kv11.1, KCNH2) [1] came out at 7%. In addition, the inhibition at 11.1 µM against hERG (Kv11.1, KCNH2) [2] amounted to 43%.

`CCOC(=O)c1c(C)n(-c2ccc(Cl)cc2)c2ccc(OC(=O)C=Cc3ccccc3)cc12`: the inhibition at 1.1 µM against hERG (Kv11.1, KCNH2) [1] was determined as 2%. In addition, the inhibition at 11.1 µM on hERG (Kv11.1, KCNH2) [2] is 9% (inactive).

As to `COc1ccccc1C(=O)ON=C(N)Cc1cccc2ccccc12`, at hERG (Kv11.1, KCNH2) [1], the inhibition at 1.1 µM was found to be 2%. The inhibition at 11.1 µM on hERG (Kv11.1, KCNH2) [2] came to 34%.

With `COc1cc(C(=O)ON=C(N)Cc2cccc3ccccc23)cc(OC)c1OC`, the inhibition at 1.1 µM on hERG (Kv11.1, KCNH2) [1] was determined as 26%. Also, the inhibition at 11.1 µM at hERG (Kv11.1, KCNH2) [2] was 89% (active).

For `Cc1cc(C=C2SC(=Nc3ccccc3)N(C3CCCC3)C2=O)c(C)n1-c1ccc(Cl)cc1`, the inhibition at 1.1 µM on hERG (Kv11.1, KCNH2) [1] came out at 5%. Also, at hERG (Kv11.1, KCNH2) [2], the inhibition at 11.1 µM is -5% (inactive).

As to `CN(C)c1ccc(N2C(N)=NC(N)=NC2(C)C)cc1`, at hERG (Kv11.1, KCNH2) [1], the inhibition at 1.1 µM came to 10%. The inhibition at 11.1 µM on hERG (Kv11.1, KCNH2) [2] was 11% (inactive).

Turning to `CCCCCCc1cc2cc(-c3nc4ccccc4[nH]3)c(=Nc3ccccc3C)oc2cc1O`, the inhibition at 1.1 µM against hERG (Kv11.1, KCNH2) [1] was found to be 2%. Also, the inhibition at 11.1 µM at hERG (Kv11.1, KCNH2) [2] was -1% (inactive).

Consider `Nc1ccn([C@@H]2O[C@H](CO)[C@@H](O)[C@H]2O)c(=O)n1` [CYTIDINE], for which the inhibition at 1.1 µM against hERG (Kv11.1, KCNH2) [1] turned out to be 0%. Moreover, the inhibition at 11.1 µM on hERG (Kv11.1, KCNH2) [2] is 8% (inactive).

Take `O=C(Nc1cccc(C2=NCCN2)c1)Nc1cccc(C2=NCCN2)c1` [IMIDOCARB]: at hERG (Kv11.1, KCNH2) [1], the inhibition at 1.1 µM is 59%. Besides, the inhibition at 11.1 µM on hERG (Kv11.1, KCNH2) [2] was 110%.

For the molecule `CN(C)c1ccc(C(O)(c2ccc(N(C)C)cc2)c2ccc(N(C)C)cc2)cc1` [METHYLROSANILINE], the inhibition at 1.1 µM against hERG (Kv11.1, KCNH2) [1] was 48%. The inhibition at 11.1 µM at hERG (Kv11.1, KCNH2) [2] was 103% (active).

The values above are taken from ChEMBL document CHEMBL3301458, “MMV Malaria Box hERG screening”.
